Experimental findings from patent US11197888B2, “LHRH-platinum conjugates for treating reproductive cancers” (priority 2015, dated 2021) are described below.

This assay has as its system 4T1 tumors. The experiment in a line: In-vivo analysis of impact on 4T1 tumor growth in Balb/c mice. Set-up: species or system female Balb/c mice. The settings on record: 4T1 tumors in mammary fat pad, carboplatin 5 mg/kg/wk or molar-equivalent Pt-LHRH, IP, 2 weeks, vs control. How it is done:
In this experiment at least one eleven week old female Balb/c mice were utilized. The animals were allowed to acclimate for 1 week before experimentation and were maintained on a 12 hours light and dark cycle, and fed standard rodent chow (Prolab ISOPRO RMH 3000 Irradiated Lab Diet; Purina Mills International). Animal protocols were approved by the committee on animal research care and use at Eastern Kentucky University. 4T1 tumors were grown in the right abdominal mammary fat pad of the mice for 7 days. After tumor initiation (˜100 mm3) the mice were administered Pt-LHRH (carboplatin molar-equivalent dosage) through IP injection and compared to those treated with carboplatin (5 mg/kg/wk), no treatment, and LHRH plus carboplatin (unbound) controls for 2 weeks. Tumor growth was monitored daily and tumor volumes (mm3) were calculated using the formula: (width) 2×length/2, where width is the smaller of the two measurements. At two weeks the mice were sacrificed and tumor volume and weight were measured.

With `N.N.O=C([O-])C1(C(=O)[O-])CCC1.[Pt+2]` [carboplatin], the tumor growth entry was “no statistically significant reduction in tumor growth”.
